# Measurements taken from ChEMBL document CHEMBL1131371, “H-phosphonate derivatives as novel peptide deformylase inhibitors” (Bioorg Med Chem Lett, 1998).
# What was measured:
# Peptide deformylase = target: T1, Peptide deformylase (Escherichia coli, UniProt Q9JN24); assay: Compound was evaluated for inhibitory activity against Peptide deformylase
# T1 sequence (Q9JN24 whole entry): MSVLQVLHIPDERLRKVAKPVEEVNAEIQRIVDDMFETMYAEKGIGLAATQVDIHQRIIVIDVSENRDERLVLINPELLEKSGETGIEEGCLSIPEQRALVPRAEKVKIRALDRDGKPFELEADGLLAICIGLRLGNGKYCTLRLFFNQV
# [1] = Compound was evaluated for inhibitory activity against Zn2+ deformylase.
# [2] = substrate: CCCC[C@H](O[PH](=O)O)C(=O)N[C@@H](CC(C)C)C(=O)Nc1ccc([N+](=O)[O-])cc1
# Description: Apparent KM against enzyme peptide deformylase (PDF)
Ki (Peptide deformylase) [µM],Ki [1] [µM],Molecule,Km [2] [µM]
125,,CCCC[C@@H](O[PH](=O)O)C(=O)N[C@@H](CC(C)C)C(=O)Nc1ccc([N+](=O)[O-])cc1,
37,76,CCCC[C@H](O[PH](=O)O)C(=O)N[C@@H](CC(C)C)C(=O)Nc1ccc([N+](=O)[O-])cc1,
,,"Peptide deformylase, mitochondrial (Homo sapiens), Q9HBH1 (protein) MARLWGALSLWPLWAAVPWGGAAAVGVRACSSTAAPDGVEGPALRRSYWRHLRRLVLGPPEPPFSHVCQVGDPVLRGVAAPVERAQLGGPELQRLTQRLVQVMRRRRCVGLSAPQLGVPRQVLALELPEALCRECPPRQRALRQMEPFPLRVFVNPSLRVLDSRLVTFPEGCESVAGFLACVPRFQAVQISGLDPNGEQVVWQASGWAARIIQHEMDHLQGCLFIDKMDSRTFTNVYWMKVND",20
